Where two headings read alike, the source gives them in different places.
Columns and labels:
[1] = test system: Plasmodium falciparum 3D7-A10 parasites; test: Stage specificity assay (8-h exposure of synchronized stages, IC50^8h); format: cell-based; details: for IC50: Plasmodium falciparum
[2] = test system: asynchronous 3D7-A10 parasite cultures; test: Standard 72-h exposure asexual blood stage susceptibility assay (IC50^72h); format: cell-based, Plasmodium falciparum; details: Plasmodium falciparum, 3D7, 72 h, read-out: Overall (72hr assay) Mean IC50 (IC50^72h)
[3] = test system: 3D7-MR4 trophozoite parasite-infected RBCs; test: Metabolomic profiling (hydrophilic metabolite changes, UHPLC-MS); format: cell-based, Plasmodium falciparum

## FC(F)(F)c1cccc(Nc2nc3ccccc3nc2Nc2cccc(C(F)(F)F)c2)c1 [MMV665794]
[1]; 3D7-A10
  Ratio lowest IC50 8hr/IC50 72hr: 1.8
[1]; 3D7, read-out: Early rings Mean IC50 (IC50^8h), 8-h exposure 0–8 hr, 3D7-A10, survival at 60 h
  IC50: 369 nM
[1]; 3D7, read-out: Early trophozoites Mean IC50 (IC50^8h), 8-h exposure 16–24 hr, 3D7-A10, survival at 60 h
  IC50: 210 nM
[1]; 3D7, read-out: Late rings Mean IC50 (IC50^8h), 8-h exposure 8–16 hr, 3D7-A10, survival at 60 h
  IC50: 590 nM
[1]; 3D7, read-out: Late trophozoites Mean IC50 (IC50^8h), 8-h exposure 24–32 hr, 3D7-A10, survival at 60 h
  IC50: 165 nM
[1]; 3D7, read-out: Schizonts Mean IC50 (IC50^8h), 8-h exposure 32–40 hr, 3D7-A10, survival at 60 h
  IC50: 203 nM
[2]
  IC50: 91.3 nM
[3]; metabolite 3-phosphoglycerate, log2 fold change
  Log2(fold changes) 3-phosphoglycerate: 0.1475
[3]; metabolite 4-Pyridoxic acid, log2 fold change
  Log2(fold changes) 4-Pyridoxic acid: 0.1397
[3]; metabolite 4-aminobutyrate, log2 fold change
  Log2(fold changes) 4-aminobutyrate: -0.1443
[3]; metabolite 4-phosphopantetheine, log2 fold change
  Log2(fold changes) 4-phosphopantetheine: 0.0000
[3]; metabolite 4-phosphopantothenate, log2 fold change
  Log2(fold changes) 4-phosphopantothenate: 0.0000
[3]; metabolite 5-aminopentanoic acid, log2 fold change
  Log2(fold changes) 5-aminopentanoic acid: 0.0000
[3]; metabolite 5-methyl-THF, log2 fold change
  Log2(fold changes) 5-methyl-THF: 0.0000
[3]; metabolite 5-phosphoribosyl-1-pyrophosphate, log2 fold change
  Log2(fold changes) 5-phosphoribosyl-1-pyrophosphate: 0.0000
[3]; metabolite 6-phospho-D-gluconate, log2 fold change
  Log2(fold changes) 6-phospho-D-gluconate: 0.0648
[3]; metabolite HVDD
  Log2(fold change) HVDD: 0.0000
[3]; metabolite Hydroxyisocaproic acid
  Log2(fold change) Hydroxyisocaproic acid: 0.0000
[3]; metabolite IDP
  Log2(fold change) IDP: 0.0000
[3]; metabolite IMP
  Log2(fold change) IMP: -0.1724
[3]; metabolite Inositol
  Log2(fold change) Inositol: 0.4519
[3]; metabolite Isopentyl-PP
  Log2(fold change) Isopentyl-PP: 0.0000
[3]; metabolite L-arginino-succinate
  Log2(fold change) L-arginino-succinate: 0.0000
[3]; metabolite LD
  Log2(fold change) LD: 0.2876
[3]; metabolite Myristoyl/tetradecanoyl-CoA
  Log2(fold change) Myristoyl/tetradecanoyl-CoA: 0.0000
[3]; metabolite N-Acetyl-L-alanine
  Log2(fold change) N-Acetyl-L-alanine: -0.5892
[3]; metabolite N-acetyl-L-ornithine
  Log2(fold change) N-acetyl-L-ornithine: -0.6613
[3]; metabolite N-acetyl-glucosamine-1/6-phosphate
  Log2(fold change) N-acetyl-glucosamine-1/6-phosphate: 0.0457
[3]; metabolite N-acetyl-glutamate
  Log2(fold change) N-acetyl-glutamate: 0.0432
[3]; metabolite N-acetyl-glutamine
  Log2(fold change) N-acetyl-glutamine: -0.6444
[3]; metabolite N-carbamoyl-L-aspartate
  Log2(fold change) N-carbamoyl-L-aspartate: 0.7842
[3]; metabolite NAD+
  Log2(fold change) NAD+: -0.0023
[3]; metabolite NADH
  Log2(fold change) NADH: 0.0000
[3]; metabolite NADP+
  Log2(fold change) NADP+: 0.2420
[3]; metabolite NADPH
  Log2(fold change) NADPH: 0.2872
[3]; metabolite O-acetyl-L-serine
  Log2(fold change) O-acetyl-L-serine: 0.0000
[3]; metabolite Octoluse 8/1P
  Log2(fold change) Octoluse 8/1P: -0.0525
[3]; metabolite Octoluse Bisphosphate
  Log2(fold change) Octoluse Bisphosphate: -0.0227
[3]; metabolite PD
  Log2(fold change) PD: -1.6060
[3]; metabolite PE
  Log2(fold change) PE: -1.2530
[3]; metabolite PEE
  Log2(fold change) PEE: -0.7348
[3]; metabolite PEEK
  Log2(fold change) PEEK: -2.1636
[3]; metabolite PVNF
  Log2(fold change) PVNF: -0.9738
[3]; metabolite Pyroglutamic acid
  Log2(fold change) Pyroglutamic acid: -0.1549
[3]; metabolite Pyrophosphate
  Log2(fold change) Pyrophosphate: 0.0000
[3]; metabolite Ribose-5-phosphate
  Log2(fold change) Ribose-5-phosphate: 0.0000
[3]; metabolite S-adenosyl-L-homocysteine
  Log2(fold change) S-adenosyl-L-homocysteine: -0.1116
[3]; metabolite S-adenosyl-L-methioninamine
  Log2(fold change) S-adenosyl-L-methioninamine: 0.0000
[3]; metabolite S-adenosyl-L-methionine
  Log2(fold change) S-adenosyl-L-methionine: 0.0000
[3]; metabolite S-methyl-5'-thioadenosine
  Log2(fold change) S-methyl-5'-thioadenosine: -0.0770
[3]; metabolite SD
  Log2(fold change) SD: -0.6103
[3]; metabolite SDL
  Log2(fold change) SDL: 0.0000
[3]; metabolite SID
  Log2(fold change) SID: 0.0000
[3]; metabolite Sedoheptulose bisphosphate
  Log2(fold change) Sedoheptulose bisphosphate: 0.0000
[3]; metabolite Thiamine pyrophosphate
  Log2(fold change) Thiamine pyrophosphate: 0.0000
[3]; metabolite UDP-D-glucose, log2 fold change
  Log2(fold changes) UDP-D-glucose: 0.0057
[3]; metabolite UDP-D-glucuronate, log2 fold change
  Log2(fold changes) UDP-D-glucuronate: 0.0333
[3]; metabolite UDP-N-acetyl-glucosamine, log2 fold change
  Log2(fold changes) UDP-N-acetyl-glucosamine: -0.0841
[3]; metabolite UDP, log2 fold change
  Log2(fold changes) UDP: -0.2966
[3]; metabolite UMP, log2 fold change
  Log2(fold changes) UMP: -0.1315
[3]; metabolite UTP, log2 fold change
  Log2(fold changes) UTP: -0.1979
[3]; metabolite hydroxyphenylpyruvate
  Log2(fold change) hydroxyphenylpyruvate: 0.0000
[3]; metabolite hydroxyproline/Aminolevulinate
  Log2(fold change) hydroxyproline/Aminolevulinate: 0.0000
[3]; metabolite hypoxanthine
  Log2(fold change) hypoxanthine: 0.0564
[3]; metabolite indole
  Log2(fold change) indole: 0.0000
[3]; metabolite inosine
  Log2(fold change) inosine: -0.1857
[3]; metabolite isoleucine
  Log2(fold change) isoleucine: 0.0000
[3]; metabolite lactate
  Log2(fold change) lactate: -0.1258
[3]; metabolite leucine
  Log2(fold change) leucine: 0.0000
[3]; metabolite lysine
  Log2(fold change) lysine: -1.0057
[3]; metabolite malate
  Log2(fold change) malate: -0.5114
[3]; metabolite maleic acid
  Log2(fold change) maleic acid: 0.0000
[3]; metabolite methionine
  Log2(fold change) methionine: 0.1032
[3]; metabolite myo-inositol
  Log2(fold change) myo-inositol: -0.1088
[3]; metabolite nicotinamide mononucleotide
  Log2(fold change) nicotinamide mononucleotide: 0.0000
[3]; metabolite nicotinate
  Log2(fold change) nicotinate: -0.0014
[3]; metabolite ornithine
  Log2(fold change) ornithine: -0.5221
[3]; metabolite orotate
  Log2(fold change) orotate: -0.1200
[3]; metabolite orotidine-5'-phosphate
  Log2(fold change) orotidine-5'-phosphate: -0.1502
[3]; metabolite oxaloacetate
  Log2(fold change) oxaloacetate: 0.0000
[3]; metabolite p-aminobenzoate
  Log2(fold change) p-aminobenzoate: 0.0000
[3]; metabolite p-hydroxybenzoate
  Log2(fold change) p-hydroxybenzoate: 0.0000
[3]; metabolite pantothenate
  Log2(fold change) pantothenate: -0.3232
[3]; metabolite phenylalanine
  Log2(fold change) phenylalanine: -0.3048
[3]; metabolite phenylpyruvate
  Log2(fold change) phenylpyruvate: 0.0000
[3]; metabolite phosphoenolpyruvate
  Log2(fold change) phosphoenolpyruvate: 0.2889
[3]; metabolite prephenate
  Log2(fold change) prephenate: 0.0000
[3]; metabolite proline
  Log2(fold change) proline: -0.1760
[3]; metabolite pyridoxine
  Log2(fold change) pyridoxine: -0.0343
[3]; metabolite pyruvate
  Log2(fold change) pyruvate: -0.4249
[3]; metabolite riboflavin
  Log2(fold change) riboflavin: 0.0000
[3]; metabolite ribose
  Log2(fold change) ribose: 0.0000
[3]; metabolite ribose-phosphate
  Log2(fold change) ribose-phosphate: -0.1845
[3]; metabolite ribulose-5-phosphate
  Log2(fold change) ribulose-5-phosphate: 0.0000
[3]; metabolite serine
  Log2(fold change) serine: -0.0943
[3]; metabolite sn-glycerol-3-phosphate
  Log2(fold change) sn-glycerol-3-phosphate: 0.1547
[3]; metabolite succinate/Methylmalonic acid
  Log2(fold change) succinate/Methylmalonic acid: 0.2773
[3]; metabolite succinyl-CoA/methylmalonyl-CoA
  Log2(fold change) succinyl-CoA/methylmalonyl-CoA: 0.0000
[3]; metabolite taurine
  Log2(fold change) taurine: 0.4682
[3]; metabolite thiamine
  Log2(fold change) thiamine: -0.4163
[3]; metabolite threonine/homoserine
  Log2(fold change) threonine/homoserine: -0.3057
[3]; metabolite thymidine
  Log2(fold change) thymidine: 0.0000
[3]; metabolite thymine, log2 fold change
  Log2(fold changes) thymine: 0.0000
[3]; metabolite trehalose-6-Phosphate, log2 fold change
  Log2(fold changes) trehalose-6-Phosphate: 0.0000
[3]; metabolite tryptophan, log2 fold change
  Log2(fold changes) tryptophan: -0.2265
[3]; metabolite tyrosine, log2 fold change
  Log2(fold changes) tyrosine: -0.1308
[3]; metabolite uridine, log2 fold change
  Log2(fold changes) uridine: -0.0071

From PMC7031696 (Cell chemical biology, 2019)
